Among the data in patent US10669252B2, “Benzazepine derivative, preparation method, pharmaceutical composition and use thereof” (SHANGHAI DE NOVO PHARMATECH CO., LTD., priority 2016, dated 2020) are EC50 values, retold here.

One may read the pEC50 as the negative decadic logarithm of the EC50, by convention in mol/L. Lower therefore signals a high EC50.

Molecules are shown by their SMILES. pEC50: −log10 of the molar value.

One test concerns the target T1, TLR8 (Homo sapiens, UniProt Q9NR97).
T1 construct: host or cells: HEK293 (HEK-BLUE-hTLR8)
T1 sequence (Q9NR97 27-1041): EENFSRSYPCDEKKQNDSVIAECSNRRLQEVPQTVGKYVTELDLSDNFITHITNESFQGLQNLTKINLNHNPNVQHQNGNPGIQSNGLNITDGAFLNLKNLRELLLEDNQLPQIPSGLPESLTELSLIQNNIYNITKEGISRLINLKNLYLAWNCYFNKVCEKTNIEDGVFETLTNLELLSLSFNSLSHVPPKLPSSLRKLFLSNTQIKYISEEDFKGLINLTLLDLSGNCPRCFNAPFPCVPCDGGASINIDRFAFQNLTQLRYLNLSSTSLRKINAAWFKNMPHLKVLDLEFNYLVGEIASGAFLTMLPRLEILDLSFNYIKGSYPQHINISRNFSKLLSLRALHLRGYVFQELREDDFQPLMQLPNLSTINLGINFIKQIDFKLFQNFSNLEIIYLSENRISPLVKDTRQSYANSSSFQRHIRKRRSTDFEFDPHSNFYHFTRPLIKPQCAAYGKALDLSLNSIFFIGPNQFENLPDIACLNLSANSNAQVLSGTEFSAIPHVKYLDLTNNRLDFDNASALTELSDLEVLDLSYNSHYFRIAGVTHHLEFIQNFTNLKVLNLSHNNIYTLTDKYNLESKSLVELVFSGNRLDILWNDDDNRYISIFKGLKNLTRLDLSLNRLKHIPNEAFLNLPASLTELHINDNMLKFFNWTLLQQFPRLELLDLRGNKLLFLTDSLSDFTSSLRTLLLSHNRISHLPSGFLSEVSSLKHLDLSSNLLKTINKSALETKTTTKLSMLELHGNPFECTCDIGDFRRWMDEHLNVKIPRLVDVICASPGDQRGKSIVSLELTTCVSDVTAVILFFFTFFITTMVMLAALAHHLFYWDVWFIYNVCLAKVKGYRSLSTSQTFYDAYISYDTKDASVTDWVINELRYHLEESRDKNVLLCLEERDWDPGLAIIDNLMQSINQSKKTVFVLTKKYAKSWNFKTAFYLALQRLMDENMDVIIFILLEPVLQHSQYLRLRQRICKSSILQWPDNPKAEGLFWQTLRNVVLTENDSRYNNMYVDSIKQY
Description: TLR8 cell based assay (HEK-BLUE-hTLR8, SEAP reporter linked to NF-κB activation). As to conditions: HEK-BLUE-hTLR8 cells, 24 h treatment, SEAP/QUANTI-Blue readout. As for the experimental part:
In this assay, the bioactivity of compound of formula Iw as measured using a cell based assay. The assay was performed in human embryonic kidney cells (HEK293) expressing TLR8 or other TLR family members such as TLR4, TLR7 and TLR9 (for selectivity screens). The activity of specific TLR agonists was assessed using the secretory embryonic alkaline phosphatase (SEAP) reporter gene that is linked to NF-κB activation in response to TLR stimulation. The SEAP activity was measured using the Quanti-Blue substrate (InvivoGen) after TLR agonist treatment.
The detailed experimental method is as follow:
HEK-BLUE-hTLR8 cell line was purchased from InvivoGen. The cells were cultured in Dulbecco's Modified Eagle's Media containing 4.5 g/L […] (Sigma-Aldrich) and 10% FBS. The cells were cultured at 37° C., 95% humidity and 5% CO2.
Test concentrations of the compounds ranged from 0.5 nM to 15 μM with 10 points. A known TLR8 agonist was added as positive control and 1 μl of DMSO was added as negative control.
The cells were prepared as follows: The cells were removed from the incubator and growth medium was discarded. The cells were gently rinsed with pre-warmed 10 ml PBS for a T-150 flask. 12 ml pre-warmed growth medium was added, and the cells were detached by tapping the flask. Cell clumps were dissociated by gently pipetting up and down. The cells were counted. Single cell suspension was prepared at 200,000 cells per ml in growth medium and 200 μl of the cell suspension (40,000 cells per well) were immediately added to each well of the plate. The final DMSO concentration of each well was 0.5%.
The cells were cultured and treated with the compounds at 37° C., 5% CO2 for 24 h.
20 μL of the supernatant of each well were added to 180 μL of QUANTI-Blue, and the plates were incubated at 37° C. for 1.5 hour. Optical density was measured using a spectrophotometer at 650 nm (OD data). Activivation was calculated by using the equation below: Activivation %=(Compound OD mean value−DMSO OD mean value)/(positive control OD mean value−DMSO OD mean value)×100
The data were analyzed using the GraphPad to get EC50 values and fitting dose response curves of the compounds.
The compound `[2H]c1cc(-c2ccc3c(=O)n(CCS(C)(=O)=O)ncc3c2)cc2c1C=C(C(=O)N(CCC)CCC)CC(N)=N2` [Compound 2-2-4] showed a pEC50 above 7.00.
Same read-out and setting: for `CCCN(CCC)C(=O)C1=Cc2ccc(-c3ccc4c(=O)n(CC(C)(C)O)cnc4c3)cc2N=C(N)C1` [Compound 1-7-5] the value was above 7.00; for `CCCN(CCC)C(=O)C1=Cc2ccc(-c3ccc4c(=O)n(Cc5nnn(C)n5)ccc4c3)cc2N=C(N)C1` [Compound 1-2-39], above 7.00.
The same measure, in the same setting: the result for `CCCN(CCC)C(=O)C1=Cc2c(Cl)cc(-c3ccc4c(=O)n(CCS(C)(=O)=O)ncc4c3)cc2N=C(N)C1` [Compound 2-2-3] reads 6.00 to 7.00; that for `CCCN(CCC)C(=O)C1=Cc2ccc(-c3ccc4c(=O)n(CC(N)=O)cnc4c3)cc2N=C(N)C1` [Compound 1-7-1], 6.00 to 7.00; that for `CCCN(CCC)C(=O)C1=Cc2c(C)cc(-c3ccc4c(=O)n(Cc5ncccn5)ncc4c3)cc2N=C(N)C1` [Compound 2-3-2], above 7.00.
`CCCN(CCC)C(=O)C1=Cc2ccc(-c3ccc4c(c3)CN(CC)C4=O)cc2N=C(N)C1` [Compound 1-3-1]: the pEC50 was above 7.00.
Turning to `CCCN(CCC)C(=O)C1=Cc2ccc(-c3ccc4c(=O)n(CC(=O)O)ccc4c3)cc2N=C(N)C1` [Compound 1-2-42], the pEC50 was 5.00 to 6.00.
The same measure, in the same setting: the result for `CCCN(CCC)C(=O)C1=Cc2ccc(-c3ccc4c(=O)n(Cc5cnccn5)ccc4c3)cc2N=C(N)C1` [Compound 1-2-44] reads above 7.00; that for `CCCN(CCC)C(=O)C1=Cc2ccc(-c3ccc4c(=O)n(Cc5nc(OC)cc(OC)n5)ncc4c3)cc2N=C(N)C1` [Compound 1-8-21], above 7.00; that for `CCCN(CCC)C(=O)C1=Cc2ccc(-c3cc4c(=O)n(CC)ccc4s3)cc2N=C(N)C1` [Compound 1-5-2], 5.00 to 6.00.
`CCCN(CCC)C(=O)C1=Cc2ccc(-c3ccc4c(=O)[nH]ccc4c3)cc2N=C(N)C1` [Compound 1-1-1] had a pEC50 of 5.00 to 6.00.
With `CCCN(CCC)C(=O)C1=Cc2ccc(-c3ccc4c(=O)n(CCP(=O)(OCC)OCC)ncc4c3)cc2N=C(N)C1` [Compound 1-8-14], the pEC50 is above 7.00.
Take `CCCN(CCC)C(=O)C1=Cc2ccc(-c3ccc4c(=O)n(CCO)ccc4c3)cc2N=C(N)C1` [Compound 1-2-6]: the negative-log EC50 (pEC50) is above 7.00.
The same measure, in the same setting: for `CCCCn1ccc2cc(-c3ccc4c(c3)N=C(N)CC(C(=O)N(CCC)CCC)=C4)ccc2c1=O` [Compound 1-2-27] the value was 6.00 to 7.00.
Turning to `CCCN(CCC)C(=O)C1=Cc2c(F)cc(-c3ccc4c(=O)n(CC(=O)NC)ncc4c3)cc2N=C(N)C1` [Compound 1-10-6], the pEC50 was above 7.00.
The same measure, in the same setting: the result for `CCCN(CCC)C(=O)C1=Cc2ccc(-c3ccc4c(=O)n(CCP(C)(=O)OCC)ccc4c3)cc2N=C(N)C1` (stereo not drawn) [Compound 1-2-11] reads above 7.00.
On the same count and under the same terms, for `CCCN(CCC)C(=O)C1=Cc2ccc(-c3ccc4c(=O)n(CCC(N)=O)ncc4c3)cc2N=C(N)C1` [Compound 1-8-7] the value was above 7.00.
On the same count and under the same terms, for `CCCN(CCC)C(=O)C1=Cc2c(F)cc(-c3ccc4c(=O)n(CCS(C)(=O)=O)ccc4c3)cc2N=C(N)C1` [Compound 1-10-4] the value was above 7.00.
As to `CCCN(CCC)C(=O)C1=Cc2ccc(-c3ccc4c(=O)n(Cc5ccccn5)ncc4c3)cc2N=C(N)C1` [Compound 1-8-20], the pEC50 is above 7.00.
Compound `CCCN(CCC)C(=O)C1=Cc2ccc(-c3ccc4c(n3)CN(CCO)C4=O)cc2N=C(N)C1` [Compound 1-6-2] showed a pEC50 of 6.00 to 7.00.
Still for that read-out and setting: the result for `CCCN(CCC)C(=O)C1=Cc2ccc(-c3ccc4c(=S)n(Cc5ncccn5)ncc4c3)cc2N=C(N)C1` [Compound 1-14-1] reads above 7.00; that for `CCCN(CCC)C(=O)C1=Cc2ccc(-c3ccc4c(=O)n(CC(C)(C)O)c(=O)n(C)c4c3)cc2N=C(N)C1` [Compound 1-9-5], 6.00 to 7.00.
Still for that read-out and setting: for `CCCN(CCC)C(=O)C1=Cc2ccc(-c3ccc4ccn(CCO)c(=O)c4c3)cc2N=C(N)C1` [Compound 1-2-51] the value was 5.00 to 6.00; for `CCCN(CCC)C(=O)C1=Cc2ccc(-c3ccc4c(=O)n(Cc5nnc(C)o5)ccc4c3)cc2N=C(N)C1` [Compound 1-2-30], above 7.00.
As for `CCCN(CCO)C(=O)C1=Cc2ccc(-c3ccc4c(=O)n(CC(N)=O)ccc4c3)cc2N=C(N)C1` [Compound 1-12-1], the pEC50 is 6.00 to 7.00.
On the same count and under the same terms, the result for `[2H]c1cc(-c2ccc3c(=O)n(Cc4ncccn4)ncc3c2)cc2c1C=C(C(=O)N(CCC)CCC)CC(N)=N2` [Compound 2-3-3] reads above 7.00; that for `CCCN(CCC)C(=O)C1=Cc2ccc(-c3ccc4c(=O)n(Cc5nc(OC)cc(OC)n5)ccc4c3)cc2N=C(N)C1` [Compound 1-2-46], above 7.00; that for `CCCN(CCC)C(=O)C1=Cc2ccc(-c3ccc4c(=O)n(Cc5nccn5C(C)C)ccc4c3)cc2N=C(N)C1` [Compound 1-2-49], above 7.00.
Still for that read-out and setting: for `CCCN(CCC)C(=O)C1=Cc2ccc(-c3ccc4c(=O)n(CCOC)ncc4c3)cc2N=C(N)C1` [Compound 1-8-9] the value was above 7.00.
For `CCCN(CCC)C(=O)C1=Cc2ccc(-c3ccc4c(=O)n(CCNS(C)(=O)=O)c(=O)n(C)c4c3)cc2N=C(N)C1` [Compound 1-9-6], the pEC50 is above 7.00.
Still for that read-out and setting: the result for `CCCN(CCC)C(=O)C1=Cc2ccc(-c3ccc4c(=O)n(CC(N)=O)c(=O)n(C)c4c3)cc2N=C(N)C1` [Compound 1-9-3] reads 6.00 to 7.00.
The same measure, in the same setting: for `CCCN(CCC)C(=O)C1=Cc2ccc(-c3ccc4c(=O)n(CCNS(C)(=O)=O)cnc4c3)cc2N=C(N)C1` [Compound 1-7-6] the value was 6.00 to 7.00.
Still for that read-out and setting: the result for `CCCN(CCC)C(=O)C1=Cc2ccc(-c3ccc4c(=O)n(CC)ccc4c3)cc2N=C(N)C1` [Compound 1-2-3] reads 6.00 to 7.00; that for `CCCN(CCC)C(=O)C1=Cc2ccc(-c3cnc4c(c3)CN(CCO)C4=O)cc2N=C(N)C1` [Compound 1-6-1], 6.00 to 7.00.
`CCCN(CCC)C(=O)C1=Cc2c(F)cc(-c3ccc4c(=O)n(CCS(C)(=O)=O)c(=O)n(C)c4c3)cc2N=C(N)C1` [Compound 1-10-10] had a pEC50 of 6.00 to 7.00.
As for `CCCN(CCC)C(=O)C1=Cc2ccc(-c3ccc4c(=O)n(Cc5ccno5)ccc4c3)cc2N=C(N)C1` [Compound 1-2-29], the pEC50 is 6.00 to 7.00.
`CCCN(CCC)C(=O)C1=Cc2ccc(-c3ccc4c(=O)n(CCN(C)C)ccc4c3)cc2N=C(N)C1` [Compound 1-2-12] gave a pEC50 of 6.00 to 7.00.
The compound `CCCN(CCC)C(=O)C1=Cc2ccc(-c3ccc4c(=O)n(CCn5cccn5)ncc4c3)cc2N=C(N)C1` [Compound 1-8-13] had a pEC50 above 7.00.
On the same count and under the same terms, for `CCCN(CCC)C(=O)C1=Cc2ccc(-c3ccc4c(c3)CCN(CC)C4=O)cc2N=C(N)C1` [Compound 1-4-1] the value was 6.00 to 7.00; for `CCCN(CCC)C(=O)C1=Cc2ccc(-c3ccc4c(=O)n(CC(C)C)ccc4c3)cc2N=C(N)C1` [Compound 1-2-5], 6.00 to 7.00.
Same read-out and setting: for `CCCN(CCC)C(=O)C1=Cc2c(F)cc(-c3ccc4c(=O)n(CC(=O)NC)ccc4c3)cc2N=C(N)C1` [Compound 1-10-3] the value was above 7.00.

The test is the same for the next values; noted with them: HEK-BLUE-hTLR8 cells; bound stated.
On to `[2H]c1cc(-c2ccc3c(=O)n(CCS(C)(=O)=O)ncc3c2)cc2c1C=C(C(=O)N(CCC)CCC)CC(N)=N2` [Compound 2-2-4], for which the negative logarithm of the EC50 (pEC50) was above 8.00.
Same read-out and setting: for `CCCN(CCC)C(=O)C1=Cc2ccc(-c3ccc4c(=O)n(Cc5nnn(C)n5)ccc4c3)cc2N=C(N)C1` [Compound 1-2-39] the value was above 8.00; for `CCCN(CCC)C(=O)C1=Cc2c(C)cc(-c3ccc4c(=O)n(Cc5ncccn5)ncc4c3)cc2N=C(N)C1` [Compound 2-3-2], above 8.00; for `CCCN(CCC)C(=O)C1=Cc2ccc(-c3ccc4c(=S)n(Cc5ncccn5)ncc4c3)cc2N=C(N)C1` [Compound 1-14-1], above 8.00.
As for `[2H]c1cc(-c2ccc3c(=O)n(Cc4ncccn4)ncc3c2)cc2c1C=C(C(=O)N(CCC)CCC)CC(N)=N2` [Compound 2-3-3], the pEC50 was above 8.00.
`CCCN(CCC)C(=O)C1=Cc2ccc(-c3ccc4c(=O)n(CCOC)ncc4c3)cc2N=C(N)C1` [Compound 1-8-9] gave a pEC50 above 8.00.
